Measured values as given in patent US6534524B1, “Indazole compounds and pharmaceutical compositions for inhibiting protein kinases, and methods for their use” (Agouron Pharmaceuticals, Inc., priority 1999, dated 2003).
Where two headings read alike, the source gives them in different places.

Experiments:
[1] = Determination of inhibitor concentration in mouse plasma after intraperitoneal and oral dosing; format: in vivo; conditions: for AUClast / plasma half-life (T1/2) / Cmax / AUC(0-t): vehicle PEG400:H2O pH 2.3 30:70; for concentration at 7 h / AUC(0-t): female; for concentration at 7 h: vehicle PEG400:H2O pH 2.3 30:70, read-out: Cmin (7 hr conc.)
Protocol: Blood collection was via ocular bleed at 0.5, 1, 4 hr with the final time point, 7 hour, via intracardiac puncture. The blood was centrifuged to collect plasma, which was then stored at −80° C. until analysis. Samples were prepared for analysis using an internal standard and sodium hydroxide. After vortexing, ethyl acetate was added and mixed for 15-20 minutes at ambient temperature. […] The samples were then analyzed via HPLC or LC-MS. Compound levels were quantitated by generating a standard curve of known compound concentration in mouse plasma.

[2] = target: unphosphorylated VEGF-R2Δ50 (FLVK) (Homo sapiens, UniProt P35968, DEL940-989/E990V); assay: VEGF-R2 coupled spectrophotometric assay, unphosphorylated VEGF-R2Δ50 (FLVK); conditions: for Ki: FLVK Ki, Table 1; for inhibition at 0.05 µM: read-out: FLVK % inhibition
[3] = test system: human umbilical vein endothelial cells (HUVEC); assay: HUVEC proliferation assay (VEGF-stimulated, MTT); format: cell-based; conditions: Homo sapiens, HUVEC, + albumin; read-out: HUVEC + albumin IC50

Chain of unphosphorylated VEGF-R2Δ50 (FLVK) (P35968 with tags, fused parts or gaps DEL940-989/E990V limits assumed): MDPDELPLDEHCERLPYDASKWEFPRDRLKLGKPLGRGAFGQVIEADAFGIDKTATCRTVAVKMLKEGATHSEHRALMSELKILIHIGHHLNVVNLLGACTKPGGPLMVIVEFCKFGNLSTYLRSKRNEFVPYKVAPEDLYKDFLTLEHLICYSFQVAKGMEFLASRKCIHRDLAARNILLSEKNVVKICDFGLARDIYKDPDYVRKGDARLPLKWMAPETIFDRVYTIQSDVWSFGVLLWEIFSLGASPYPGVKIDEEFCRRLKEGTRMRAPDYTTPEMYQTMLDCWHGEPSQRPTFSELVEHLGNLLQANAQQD

## O=C(NNC(=O)c1ccccc1Sc1ccc2c(/C=C/c3ccccn3)n[nH]c2c1)c1cccs1 [Example 35(m), 6-[2-((Thien-2-ylhydrazido)carbonyl)phenylsulfanyl]-3-E-[2-(pyridin-2-yl)ethenyl]-1H-indazole]
[1]; IP, 25 mg/kg
  AUClast: 0.226 µg·h/mL
  plasma half-life (T1/2): 4.0 h
  concentration at 7 h: 0.017 µg/mL
[1]; PO, 25 mg/kg
  AUClast: 0.01 µg·h/mL
  Cmax: 0.007 µg/mL
  concentration at 7 h: 0 µg/mL
[2]
  Ki: 0.04 nM

## Cc1cnc(C(=O)Nc2cccc(Oc3ccc4c(/C=C/c5ccccc5)n[nH]c4c3)c2)s1 [Example 5(a), 5-Methyl-thiazole-2-carboxylic Acid {3-(3-Styryl-1H-indazol-6-yloxy)-phenyl]-amide]
[2]
  Ki: 0.03 nM

## O=C(Nc1cccc(Oc2ccc3c(/C=C/c4ccccc4)n[nH]c3c2)c1)c1cccc2[nH]ccc12 [Example 30(d), 6-[3-(indol-4-ylcarboxamido)phenoxy]-3-E-stryrylindazole]
[2]
  Ki: 0.37 nM

## Cc1cc(C(=O)Nc2cc(Nc3ccc4c(/C=C/c5ccccn5)n[nH]c4c3)c(F)cc2C)n(C)n1 [Example 48(b), 6N-(5-((1,3-Dimethyl-1H-pyrazol-5-yl)carboxanddo)-2-fluoro-4-methylphenyl)aminol-3-E-[2-(pyridin-2-yl)ethenyl]-1H-indazole]
[3]
  IC50: ~8 nM
[1]; PO, 25 mg/kg
  AUClast: 2.191 µg·h/mL
  plasma half-life (T1/2): 4 h
  concentration at 7 h: 0.136 µg/mL

## CCn1nc(C)cc1C(=O)Nc1cccc(Oc2ccc3c(/C=C/c4c[nH]cn4)n[nH]c3c2)c1 [Example 32(b), 6-[3-((1-Ethyl-3-methyl-1H-pyrazol-5-yl)carboxamido)phenoxy]-3-E-[2-(1H-imidazol-4-yl)ethenyl]-1H-indazole]
[2]
  Ki: 0.08 nM

## O=C(NCc1ccncc1)c1ccccc1Sc1ccc2c(/C=C/c3ccccn3)n[nH]c2c1 [Example 35(p), 6-[2-((Pyrid-4-yl)methylcarbamoyl)phenylsulfanyl]-3-E-[2-(pyridin-2-yl)ethenyl]-1H-indazole]
[3]
  IC50: > 30 nM
[1]; PO, 25 mg/kg
  AUClast: 1.435 µg·h/mL
  plasma half-life (T1/2): 1.3 h
  concentration at 7 h: 0.005 µg/mL

## Nc1ccc(CNC(=O)c2ccccc2Sc2ccc3c(/C=C/c4ccccn4)n[nH]c3c2)cc1 [Example 35(l)]
[2]
  inhibition at 0.05 µM: 90%

## O=C(Nc1cccc(Oc2ccc3c(/C=C/c4c[nH]cn4)n[nH]c3c2)c1)c1ccccc1 [Example 32(a), 6-[3-Benzamidophenoxy]-3-E-[2-(1H-imidazol-4-yl)ethenyl]-1H-indazole]
[1]; PO, 50 mg/kg
  AUClast: 4.19 µg·h/mL
  concentration at 7 h: 0.04 µg/mL
[1]; IP, 25 mg/kg
  AUC(0-t): > 20.6 µg·h/mL
  concentration at 7 h: 1.27 µg/mL
[1]; PO, 25 mg/kg
  AUC(0-t): 0.49 µg·h/mL
  concentration at 7 h: 0.018 µg/mL
[2]
  Ki: < 0.1 nM

## CN(c1ccccc1)c1ccc2c(/C=C/c3ccccc3)n[nH]c2c1 [Example 14, Methyl-phenyl-(3-styryl-1H-indazol-6-yl)-amine]
[2]
  Ki: 15 nM

## CN(c1cccc(NC(=O)OCc2ccccc2)c1)c1ccc2c(/C=C/c3ccccc3)n[nH]c2c1 [Example 12(c), {3-[Methyl-(3-styryl-1H-indazol-6-yl)-amino]-phenyl}-carbamic Acid Benzyl Ester]
[2]
  Ki: 1.6 nM

## O=C(c1cccc(NC(=O)c2cc(Cl)ccn2)c1)c1ccc2c(/C=C/c3ccccc3)n[nH]c2c1 [Example 19(n), 6-[3-(4-Chloropyridin-2-ylcarboxamido)benzoyl]-3-E-styryl-1H-indazole]
[2]
  Ki: 0.54 nM

## Nc1cccc(C(=O)c2ccc3c(/C=C/c4ccccc4)n[nH]c3c2)c1 [Example 18, (3-Amino-phenyl)-(3-styryl-1H-indazol-6-yl)-methanone]
[2]
  Ki: 12.5 nM

## CCn1nc(C)cc1C(=O)Nc1cccc(Oc2ccc3c(/C=C/c4c[nH]c(C)n4)n[nH]c3c2)c1 [Example 32(c), 6-[3-((1-Ethyl-3-methyl-1H-pyrazol-5-yl)carboxamido)phenoxy]-3-E-[2-(2-methylimidazol-4-yl)ethenyl]-1H-indazole]
[1]; PO, 25 mg/kg
  AUClast: 0.388 µg·h/mL
  Cmax: 0.161 µg/mL
  plasma half-life (T1/2): 2.4 h
  concentration at 7 h: 0.01 µg/mL
[2]
  Ki: 0.27 nM

## Cn1nc(C(C)(C)C)cc1C(=O)Nc1cccc(C(=O)c2ccc3c(/C=C/c4ccccn4)n[nH]c3c2)c1 [Example 41(n), 6-[3-((3-t-Butyl-1-methyl-1H-pyrazol-5-yl)carboxamido)benzoyl]-3-E-[2-(pyridin-2-yl)ethenyl]-1H-indazole]
[1]; IP, 25 mg/kg
  AUClast: 9.408 µg·h/mL
  Cmax: 1.976 µg/mL
  plasma half-life (T1/2): 3.2 h
  concentration at 7 h: 0.465 µg/mL
[1]; PO, 50 mg/kg
  AUClast: 9.066 µg·h/mL
  Cmax: 2.245 µg/mL
  plasma half-life (T1/2): 1.9 h
  concentration at 7 h: 0.253 µg/mL
[2]
  Ki: 0.2 nM

## Cc1cc(C(=O)Nc2cc(Nc3ccc4c(/C=C/c5ccccn5)n[nH]c4c3)ccc2C)n(C)n1 [Example 49(b), 6-[N-(3-((1,3-Dimethyl-1H-pyrazol-5-yl)carboxamido)-4-methylphenyl)amino]-3-E-[2-(pyridin-2-yl)ethenyl]-1H-indazole]
[3]
  IC50: ~10 nM
[1]; PO, 25 mg/kg
  AUClast: 33.75 µg·h/mL
  Cmax: 5 µg/mL
  concentration at 7 h: 5 µg/mL

## C=C(c1cccc(NC(=O)OCc2ccccc2)c1)c1ccc2c(/C=C/c3ccccc3)n[nH]c2c1 [Example 22(c)]
[2]
  Ki: 0.64 nM

## CC(=O)c1cccc(C(=O)Nc2cccc(N(C)c3ccc4c(/C=C/c5ccc6c(c5)OCO6)n[nH]c4c3)c2)c1 [Example 16(e), 3-Acetyl-N-(3-{[3-(2-benzo[1,3]dioxol-5-yl-vinyl)-1H-indazol-6-yl]-methyl-amino}-phenyl)-benzamide]
[2]
  Ki: 1.3 nM

## CC(C)(C)c1ccc(C(=O)Nc2cccc(C(=O)c3ccc4c(/C=C/c5ccccn5)n[nH]c4c3)c2)cc1 [Example 41(s), 6-[3-(4-t-Butylbenzanido)benzoyl]-3-E-[2-(pyridin-2-yl)ethenyl]-1H-indazole]
[2]
  Ki: 0.23 nM

## CN(c1cccc(NC(=O)c2cccc(C(F)(F)F)c2)c1)c1ccc2c(/C=C/c3ccc4c(c3)OCO4)n[nH]c2c1 [Example 16(d), N-(3-{[3-(2-Benzo[1,3]dioxol-5-yl-vinyl)-1H-indazol-6-yl]-methyl-amino}-phenyl)-3-trifluoromethyl-benzamide]
[2]
  Ki: 0.43 nM

## Oc1ccc(Oc2ccc3c(/C=C/c4ccccc4)n[nH]c3c2)cc1 [Example 9(b), 3-(E-Styryl)-6-[4-hydroxyphenoxy]-1H-indazole]
[2]
  Ki: 24 nM

## Cc1nc(/C=C/c2n[nH]c3cc(C(=O)c4cccc(NC(=O)c5ccccc5)c4)ccc23)cs1 [Example 42(c), 6-(3-Benzanidobenzoyl)-3-E-[2-(2-methylthiazol-4-yl)ethenyl]-1H-indazole]
[3]
  IC50: 1 to 3 nM
[2]
  inhibition at 0.05 µM: 95%

## O=C(c1cccc(NC(=O)C2CC2)c1)c1ccc2c(/C=C/c3ccccn3)n[nH]c2c1 [Example 41(k), 6-[3-(Cyclopropylcarboxanido)benzoyl]-3-E-[2-(pyridin-2-yl)ethenyl]-1H-indazole]
[2]
  Ki: 2.95 nM

## CCn1nc(C)cc1C(=O)Nc1cccc(Oc2ccc3c(/C=C/c4ccccc4)n[nH]c3c2)c1 [Example 30(e), 6-[3-((1-Ethyl-3-methyl-1H-pyrazol-5-yl)carboxamido)phenoxy]-3-E-stryrylindazole]
[2]
  Ki: 0.37 nM

## COc1cc(-c2ccc3c(-c4cc5ccccc5[nH]4)n[nH]c3c2)ccc1O [Example 2(d), 3-(1H-Indol-2-yl)-6-(3-methoxy-4-hydroxy-phenyl)-1H-indazole]
[2]
  Ki: 3.7 nM

## CNC(C(=O)Nc1cccc(C(=O)c2ccc3c(/C=C/c4ccccc4)n[nH]c3c2)c1)c1ccccc1 (stereo not shown) [Example 19(p), 6-[3-(2-Methylamino-2-phenylacetamido)benzoyl]-3-E-styryl-1H-indazole]
[2]
  Ki: 1.5 nM

## C=C(c1cccc(N)c1)c1ccc2c(/C=C/c3ccccc3)n[nH]c2c1 [Example 21, 6-(1-(3-Aminophenyl)-vinyl)-3-styryl-1H-indazole]
[2]
  Ki: 4.6 nM

## CN(O)C(=O)c1ccccc1Sc1ccc2c(/C=C/c3ccccn3)n[nH]c2c1 [Example 35(o), 6-[2-(N-Hydroxy-N-methylcarbamoyl)phenylsulfanyl]-3-E-[2-(pyridin-2-yl)ethenyl]-1H-indazole]
[3]
  IC50: > 100 nM
[1]; PO, 25 mg/kg
  AUClast: 0.683 µg·h/mL
  Cmax: 0.486 µg/mL
  plasma half-life (T1/2): 1.0 h
  concentration at 7 h: 0.003 µg/mL

## Oc1ccc(-c2ccc3c(-c4cc5ccccc5o4)n[nH]c3c2)cc1OCc1ccccc1 [Example 2(e), 3-(Benzofuran-2-yl)-6-(3-benzyloxy-4-hydroxy-phenyl)-1H-indazole]
[2]
  Ki: 40 nM

## COCOc1ccc(Oc2ccc3c(/C=C/c4ccccc4)n[nH]c3c2)cc1 [Example 8(b), 3-(E-Styryl)-6-[4-(methoxymethoxy)phenoxy]-1H-indazole]
[2]
  Ki: 72 nM

## O=C(NOCc1ccccc1)c1ccccc1Sc1ccc2c(/C=C/c3ccccn3)n[nH]c2c1 [Example 35(i), 6-[2-(Benzyloxycarbamoyl)phenylsulfanyl]-3-E-[2-(pyridin-2-yl)ethenyl]-1H-indazole]
[3]
  IC50: 4.7 nM
[2]
  inhibition at 0.05 µM: 100%

## NNC(=O)c1ccccc1Sc1ccc2c(/C=C/c3ccccn3)n[nH]c2c1 [Example 35(ii), 6-[2-(Aminocarbamoyl)phenylsulfanyl]-3-E-[2-(pyridin-2-yl)ethenyl]-1H-indazole]
[2]
  inhibition at 0.05 µM: 44%
